Data from patent US8501424B2, “Cd4+ epitopes of bone morphogenetic proteins” (Danisco US Inc., priority 2003, dated 2013).

Key:
[1] = system: HLA Class II antigens at DRB1 and DQB1; assay: HLA associations of proliferative responses to epitope peptides; type: cell-based, human; conditions: for relative risk (RR): 83 donors
Protocol: In addition to the above analyses, the HLA associations with BMP-7 and BMP-14 epitope peptides were determined. In these experiments, the proliferative response data to five epitope peptides (#3, #7, #8, #16 and #31) were tested in 83 donors for which the expression of HLA Class II antigens at DRB1 and DQB1 was also tested. For four of the peptides, the reaction was assessed by two methods (i.e., “QC” and “non-QC,” “[nQC”] as described above). The statistically significant associations found by both methods were as follows. For epitope #3 and DR11, the relative risk (RR) was 6.25; p<0.0005 [QC], RR=4.17 p<0.005 [nQC]. For epitope #3 and DQ2, the RR was 0.17 p<0.04 [QC], RR=0.13 p<0.01 [nQC]. For epitope #3 and DQ9, the RR was 6.67 p<0.003 [QC]; RR=4.85 p<0.013 [nQC]. For epitope #8 and DR11, the RR was 6.6 p<0.0003. For epitope #31 and DR7, the RR was 8.32 p<0.001 [QC]; RR=4.44 p<0.002 [nQC].
In addition the average stimulation index (SI) was higher among DR11+ than among DR11− donors for peptide #3 (QC) (5.8 fold, p<0.0004) and peptide #8 (2.3 fold p<0.007). Also the average SI was higher among DR7+ than among DR7− donors for peptide #31 (QC) (2.7 fold p<0.0007).

CD4+ T-cells = assay: I-MUNE T-cell proliferation assay (dendritic cells + autologous CD4+ T-cells + 15-mer peptides, tritiated thymidine); type: cell-based, human; set-up: key to epitope designation: major: response rate within the tested donor pool is at least three standard deviations above the mean background response rate; moderate: response rate within the tested donor pool is at least two standard deviations above the mean or three times the background; minor: response rate within the tested donor pool is at least twice the background; conditions: 83 donors; for structure value: 15-mer peptide sets, 5 μg/ml, positive response SI >= 2.95, analysis method (QC/non-QC) not stated at place
Excerpt: Full length amino acid sequences of human BMP-7 (GenBank Accession No. P18075) and BMP-14 (GenBank Accession No. P43026) precursor proteins were used to create 15-mer peptide sets. These variant peptides were synthesized by Mimotopes, using the multi-pin synthesis technique known in the art (See e.g., Maeji et al., J. Immunol. Meth., 134:23-33 [1990]). The 15-mer peptides were created such that sequences with adjacent peptides shared 12 amino acids (i.e., each peptide was offset by three amino acids). Peptides were diluted with DMSO to provide a stock concentration of approximately 2 mg/ml. The final concentration of peptides used in each assay was 5 μg/ml.
Fresh human peripheral blood cells were collected from 83 community donors. These cells were tested to determine antigenic epitopes in BMP-7 and BMP-14, as described in Example 3, below.
Peripheral mononuclear blood cells (PBMCs) (stored at room temperature, no older than 24 hours) were prepared for use as follows. PBMCs were isolated from buffy coat material by centrifuging over an underlay of LYMPHOPREP™ at 1000×g for 30 minutes. The interface layer was collected and washed and counted using the CELL-DYN® 3700 System (Abbott). Then, suspensions containing 10^8 PBMCs resuspended in 30 ml of AIM-V (Invitrogen) were prepared and the cells were allowed to adhere to plastic T-75 culture flasks for two hours. The remainder of the cells were frozen at 5×10^7 cells/ml in 90% FCS (Gibco/BRL) and 10% DMSO (Sigma).
After the two hour PBMC incubation period, non-adherent cells were removed from the culture flasks. The adherent cells were cultured in the flasks with 800 units/ml recombinant human GM-CSF (Endogen) and 100 units/ml recombinant human IL4 (Endogen) at 37° C., 5% CO2. On day 5 of incubation, 50 units/ml recombinant human Il-1α (Endogen) and 0.2 units/ml recombinant human TNF-α were added to the cultures. Adherent and non-adherent dendritic cells were harvested, washed, and counted on day 7, following a one-hour treatment with […] mitomycin C (Sigma) and 10 mM EDTA.
Autologous CD4+ T-cells were prepared from frozen aliquots of PBMCs. After thawing and washing in DPBS, CD4+ T-cells were isolated using a commercially available CD4 negative selection kit (Dynal), according to the manufacturer's instructions. Cells were counted using the Abbott CELL-DYN® 3700 System. The purity obtained using these methods was generally found to be greater than 90%.
This Example describes the assay system used in the present invention. This test system is also referred to as the “I-MUNE®” assay system. In 96-well, round bottom plates, autologous dendritic cells and CD4+ T-cells were combined with test peptides. More specifically, in a volume of 100 μl/well, 2×10^4 dendritic cells in AIM V were combined with individual peptides (at a final peptide concentration of 5 μg/ml and a final DMSO concentration of 0.25%). After a one-hour incubation at 37° C., 5% CO2, 2×10^5 CD4+ T-cells were added to the culture for a total volume of 200 μl. Negative control wells contained dendritic cells, CD4+ T-cells and 0.25% DMSO. Positive control wells contained dendritic cells, CD4+ T-cells (at the same concentrations as the test wells) and 0.25% DMSO with 0.4 μg/ml tetanus toxoid (List). Individual peptides were tested in duplicate for each donor.
After 5 days of incubation at 37° C., 5% CO2, the cultures were pulsed with 0.25 μCi/well tritiated thymidine (Perkin Elmer). After a subsequent 24 hours of incubation, plates were harvested and assessed for incorporation of the tritiated thymidine (i.e., T-cell proliferation) using a Wallac MICROBETA® TriLux liquid scintillation counter (Perkin Elmer).
For each individual buffy coat sample, the average CPM values for all of the peptides were analyzed. The average CPM values for each peptide were divided by the average CPM value for the control (DMSO only) wells to determine the “stimulation index” (SI). […]

[2] = patients treated for spinal problems; cited from earlier work

RSQNRSKTPKNQEAL (BMP-7 epitope) [Peptide 3]
relative risk (RR) ([1]; DQ2, QC, p<0.04): 0.17
relative risk (RR) ([1]; DQ2, nQC, p<0.01): 0.13
relative risk (RR) ([1]; DQ9, QC, p<0.003): 6.67
relative risk (RR) ([1]; DQ9, nQC, p<0.013): 4.85
relative risk (RR) ([1]; DR11, QC, p<0.0005): 6.25
relative risk (RR) ([1]; DR11, nQC, p<0.005): 4.17
average stimulation index (SI) higher among DR11+ than among DR11− donors ([1]; QC, p<0.0004): 5.8 fold

SNVILKKYRNMVVRA (BMP-7 epitope) [Peptide 41]
epitope designation (CD4+ T-cells): minor
statistical significance of peptide response (Poisson, cut-off p<0.05) (CD4+ T-cells; QC method): did not reach the p<0.05 cut-off

RMANVAENSSSDQRQ (BMP-7 epitope) [Peptide 8]
relative risk (RR) ([1]; DR11, method not stated, p<0.0003): 6.6
average stimulation index (SI) higher among DR11+ than among DR11− donors ([1]; method not stated, p<0.007): 2.3 fold

SHLEPTNHAVIQTLM (BMP-14 epitope) [Peptide 20]
epitope designation (CD4+ T-cells): minor
statistical significance of peptide response (Poisson, cut-off p<0.05) (CD4+ T-cells; QC method): did not reach the p<0.05 cut-off

PLRSHLEPTNHAVIQ (BMP-14 epitope) [Peptide 19]
epitope designation (CD4+ T-cells): minor
statistical significance of peptide response (Poisson, cut-off p<0.05) (CD4+ T-cells; QC method): did not reach the p<0.05 cut-off

SPISILFIDSANNVV (BMP-14 epitope) [Peptide 31]
relative risk (RR) ([1]; DR7, QC, p<0.001): 8.32
relative risk (RR) ([1]; DR7, nQC, p<0.002): 4.44
average SI higher among DR7+ than among DR7− donors ([1]; QC, p<0.0007): 2.7 fold

B1: BMP-14: human BMP-14 (GenBank Accession No. P43026), tested as 15-mer peptide set (protein, UniProt P43026 382-501, looked up)
Growth/differentiation factor …: APLATRQGKRPSKNLKARCSRKALHVNFKDMGWDDWIIAPLEYEAFHCEGLCEFPLRSHLEPTNHAVIQTLMNSMDPESTPPTCCVPTRLSPISILFIDSANNVVYKQYEDMVVESCGCR
modifications: tested as overlapping 15-mer peptides
structure value (CD4+ T-cells): 0.57

B2: BMP-7: human BMP-7 (GenBank Accession No. P18075), tested as 15-mer peptide set (protein, UniProt P18075 293-431, looked up)
Bone morphogenetic protein 7: STGSKQRSQNRSKTPKNQEALRMANVAENSSSDQRQACKKHELYVSFRDLGWQDWIIAPEGYAAYYCEGECAFPLNSYMNATNHAIVQTLVHFINPETVPKPCCAPTQLNAISVLYFDDSSNVILKKYRNMVVRACGCH
modifications: tested as overlapping 15-mer peptides
structure value (CD4+ T-cells): 0.70
relative immunogenicity by structure values (CD4+ T-cells; QC method): more immunogenic than BMP-14
relative immunogenicity (CD4+ T-cells; non-QC method): more immunogenic than the BMP-14 protein
treated patients who developed detectable anti-BMP antibodies [2]: 38%
